{"source": "ChEMBL document CHEMBL1149004", "about": "“Ficulinic acid A and B, two novel cytotoxic straight-chain acids from the sponge Ficulina ficus” (1986)", "key": {"L1210": {"system": "L1210", "experiment": "Cytotoxicity against mouse L1210 cells assessed as inhibition of DNA synthesis by [3H]thymidine incorporation assay", "type": "functional", "details": "read-out: ID50 (the source's name)"}, "Walker 256": {"system": "Walker 256", "experiment": "Growth inhibition of rat Walker 256 cells", "type": "functional, cell-based"}}, "note": "The source made the active and inactive calls. The rule behind the calls is not given here.", "data": [{"molecule": "CCCCCCC/C=C/C(=O)CCCCCCCCCC(CCCCCCC)C(=O)O", "note": "(stereo not drawn) [FICULINIC ACID B]", "values": [{"measurement": "IC50", "setting": "L1210", "value": 12, "unit": "µg/mL"}]}, {"molecule": "CCCCCCC/C=C/C(=O)CCCCCCCC(CCCCCCC)C(=O)O", "note": "(stereo not drawn) [FICULINIC ACID A]", "values": [{"measurement": "IC50", "setting": "L1210", "value": 10, "unit": "µg/mL"}]}, {"molecule": "CCCCC/C=C\\CCC(=O)CCCCCCO", "values": [{"measurement": "Activity", "setting": "Walker 256", "value": "Active"}]}]}
